From patent publication US5599791A, “Amides of antibiotic GE 2270 factors” (Gruppo Lepetit SPA, priority 1991, dated 1997)

Key:
[1] = test system: Bact. fragilis L1010 ATCC 23745; experiment: MIC, agar dilution; type: cell-based, Bacteroides fragilis; conditions: inocula 10^4 /10^5 CFU/spot, 48 h, 37° C., anaerobic gas mixture
Experimental: (§1) MIC for Propionibacterium aches, and Bacteroides fragilis are determined by agar dilution (inocula 10^4 /10^5 CFU/spot). MIC for other organisms are determined by microbroth dilution (inocula 10^4 to 10^5 CFU/ml). Incubation times are 18-24 h, except for Haemophilus influenzae, P. acnes, B. fragilis (48 h). All organisms are incubated at 37° C.; H. influenzae is incubated in a 5% CO2 atmosphere, anaerobes in an anaerobic gas mixture. Media used are: Iso-Sensitest broth (Oxoid) (Staphylococci, Streptococcus faecalis, Escherichia coli, Proteus vulgaris; brain heart infusion broth (Difco)+1% Supplement C (Difco) (H. influenzae); The minimal inhibitory concentrations (MIC, microgram/ml) for some microorganisms are reported below in Table VII.

[2] = test system: Strep. faecalis L149 ATCC 7080; experiment: MIC, microbroth dilution; type: cell-based, Streptococcus faecalis; conditions: inocula 10^4 to 10^5 CFU/ml, Iso-Sensitest broth, 18-24 h, 37° C.
Experimental: as §1

[3] = test system: Prop. acnes L1014 ATCC 6919; experiment: MIC, agar dilution; type: cell-based, P. acnes; conditions: inocula 10^4 /10^5 CFU/spot, 48 h, 37° C., anaerobic gas mixture
Experimental: as §1

Prot. vulgaris ATCC 881 = experiment: MIC, microbroth dilution; type: cell-based, Proteus vulgaris; conditions: inocula 10^4 to 10^5 CFU/ml, Iso-Sensitest broth, 18-24 h, 37° C.
Experimental: as §1

Staph. haemolyticus L602 = experiment: MIC, microbroth dilution; type: cell-based; conditions: inocula 10^4 to 10^5 CFU/ml, Iso-Sensitest broth, 18-24 h, 37° C.
Experimental: as §1

[4] = test system: Staph. epidermidis L147 ATCC 12228; experiment: MIC, microbroth dilution; type: cell-based; conditions: inocula 10^4 to 10^5 CFU/ml, Iso-Sensitest broth, 18-24 h, 37° C.
Experimental: as §1

Staph. aureus L165 Tour = experiment: MIC, microbroth dilution; type: cell-based; conditions: inocula 10^4 to 10^5 CFU/ml, Iso-Sensitest broth, 18-24 h, 37° C.
Experimental: as §1

[5] = test system: Haemophilus Influenzae type B; experiment: MIC, microbroth dilution; type: cell-based; conditions: brain heart infusion broth +1% Supplement C, 48 h, 37° C., 5% CO2
Experimental: as §1

[6] = test system: Strep. pneumoniae L44 UC41; experiment: MIC, microbroth dilution; type: cell-based; conditions: inocula 10^4 to 10^5 CFU/ml, 18-24 h, 37° C.
Experimental: as §1

Esch. coli L47 SKF 12140 = experiment: MIC, microbroth dilution; type: cell-based, Escherichia coli; conditions: inocula 10^4 to 10^5 CFU/ml, Iso-Sensitest broth, 18-24 h, 37° C.
Experimental: as §1

| Structure (SMILES) | MIC [1] | MIC [2] | MIC [3] | MIC (Prot. vulgaris ATCC 881) | MIC [4] | MIC (Staph. aureus L165 Tour) | MIC [5] | MIC [6] | MIC (Esch. coli L47 SKF 12140) | MIC (Staph. haemolyticus L602) |
| --- | --- | --- | --- | --- | --- | --- | --- | --- | --- | --- |
| CNC(=O)CC1NC(=O)c2nc(sc2COC)C(C(C)C)NC(=O)c2csc(n2)-c2ccc(-c3nc(C(=O)NCCNCCC(=O)O)cs3)nc2-c2csc(n2)-c2csc(n2)C(C(O)c2ccccc2)NC(=O)CNC(=O)c2nc1sc2C (stereo not drawn) [Compound 38] | > 128 microgram/ml | 16 microgram/ml | 0.25 microgram/ml | > 128 microgram/ml | 32 microgram/ml | 32 microgram/ml | > 128 microgram/ml | > 128 microgram/ml | > 128 microgram/ml | 64 microgram/ml |
| CNC(=O)CC1NC(=O)c2nc(sc2COC)C(C(C)C)NC(=O)c2csc(n2)-c2ccc(-c3nc(C(=O)NCCSCCC(=O)O)cs3)nc2-c2csc(n2)-c2csc(n2)C(C(O)c2ccccc2)NC(=O)CNC(=O)c2nc1sc2C (stereo not drawn) [Compound 39] | 8 microgram/ml | ≤ 0.13 microgram/ml | ≤ 0.13 microgram/ml | > 128 microgram/ml | 0.25 microgram/ml | 0.13 microgram/ml | 1 microgram/ml | 4 microgram/ml | > 128 microgram/ml | 2 microgram/ml |
| CNC(=O)CC1NC(=O)c2nc(sc2COC)C(C(C)C)NC(=O)c2csc(n2)-c2ccc(-c3nc(C(=O)NCCOCCC(=O)O)cs3)nc2-c2csc(n2)-c2csc(n2)C(C(O)c2ccccc2)NC(=O)CNC(=O)c2nc1sc2C (stereo not drawn) [Compound 41] | 4 microgram/ml | ≤ 0.13 microgram/ml | ≤ 0.13 microgram/ml | > 128 microgram/ml | 0.5 microgram/ml | 0.25 microgram/ml | 1 microgram/ml | 2 microgram/ml | > 128 microgram/ml | 1 microgram/ml |
| Cc1sc2nc1C(=O)NCC(=O)NC(C(O)c1ccccc1)c1nc(cs1)-c1nc(cs1)-c1nc(-c3nc(C(=O)NCCCCCC(=O)O)cs3)ccc1-c1nc(cs1)C(=O)NC(C(C)C)c1nc(cs1)C(=O)NC2CC(N)=O (stereo not drawn) [Compound 43] | > 128 microgram/ml | 0.13 microgram/ml | 0.016 microgram/ml | > 128 microgram/ml | 0.5 microgram/ml | 0.13 microgram/ml | > 128 microgram/ml | 0.5 microgram/ml | > 128 microgram/ml | 0.5 microgram/ml |

The next lines start with results.

| MIC [1] | MIC [2] | MIC [3] | MIC (Prot. vulgaris ATCC 881) | MIC [4] | MIC (Staph. aureus L165 Tour) | MIC [5] | MIC [6] | MIC (Esch. coli L47 SKF 12140) | Structure (SMILES) | MIC (Staph. haemolyticus L602) |
| --- | --- | --- | --- | --- | --- | --- | --- | --- | --- | --- |
| > 128 microgram/ml | 0.13 microgram/ml | 0.016 microgram/ml | > 128 microgram/ml | 0,13 microgram/ml | 0,13 microgram/ml | 4 microgram/ml | 1 microgram/ml | > 128 microgram/ml | CNC(=O)CC1NC(=O)c2nc(sc2COC)C(C(C)C)NC(=O)c2csc(n2)-c2ccc(-c3nc(C(=O)NCCCCCC(=O)O)cs3)nc2-c2csc(n2)-c2csc(n2)C(C(O)c2ccccc2)NC(=O)CNC(=O)c2nc1sc2CO (stereo not drawn) [Compound 42] | 0.5 microgram/ml |
| > 128 microgram/ml | 0.06 microgram/ml | 0.016 microgram/ml | > 128 microgram/ml | 0.5 microgram/ml | 0.13 microgram/ml | > 128 microgram/ml | 1 microgram/ml | > 128 microgram/ml | CNC(=O)CC1NC(=O)c2nc(sc2CO)C(C(C)C)NC(=O)c2csc(n2)-c2ccc(-c3nc(C(=O)NCCCCCC(=O)O)cs3)nc2-c2csc(n2)-c2csc(n2)C(C(O)c2ccccc2)NC(=O)CNC(=O)c2nc1sc2C (stereo not drawn) [Compound 44] | 1 microgram/ml |
